Data: publication PMC7407491, “The Addition of a Synthetic LPS-Targeting Domain Improves Serum Stability While Maintaining Antimicrobial, Antibiofilm, and Cell Stimulating Properties of an Antimicrobial Peptide” (Biomolecules, 2020)
Bridge positions count the residues as written; N and C are the ends. Peptide text beside a SMILES is read from it.

What was measured:
MRSA biofilm = assay: Biofilm inhibition assay, crystal violet; type: cell-based, Methicillin-resistant Staphylococcus aureus; details: minimal salt media, 48 h 37 °C static, crystal violet OD 590 nm; p < 0.05 vs control; concentration dependent
Method: Plates were placed in a static incubator at 37 °C for 48 h; the time required for untreated wells to form biofilm. After incubation, treated media was removed and wells were rinsed with 155 µL of PBS to remove planktonic cells. After sufficient air drying of wells, 150 µL of 0.1% Crystal violet stain was added to each well and incubated at room temperature for 30 min, after which, dye was removed and wells were rinsed again with 155 µL of PBS. After sufficient drying of wells, 150 µL of 70% ethanol solution was added to each well and incubated at room temperature for 30 min. After 30 min, 100 µL of each well was added to a new 96-well plate and absorbance was measured at an OD of 590 nm.

[1] = test system: pre-formed S. typhimurium biofilm; assay: Pre-formed biofilm destruction assay, crystal violet; type: cell-based, Salmonella typhimurium; details: 48 h pre-formed biofilm, 3 h peptide treatment 37 °C, crystal violet OD 590 nm; p < 0.05 vs control; three independent experiments, n = 6
Method: To test the destruction of preformed biofilms, in a 96-well plate, 15 µL of overnight culture, of either E. coli, S. typhimurium, or MRSA, was added to 150 µL of minimal salt media (40 mM […]; 22 mM KH2PO4; […] NH4CL; 740 mM NaCl; 2 mM MgSO4; 0.1 mM CaCl2; 22 mM supplemented with D-Glucose) in each well. Plates were placed in a static incubator at 37 °C for 48 h; the time required for untreated wells to form biofilm. After formation, minimal salt media was removed and wells were treated with 155 µL of minimal salt media containing PG-1 or SynPG-1. […] Plates were placed in a static incubator at 37 °C for 3 h. After 3 h, treated media was removed and wells were rinsed with 155 µL of PBS to remove planktonic cells. After sufficient drying of wells, 150 µL of 0.1% crystal violet stain was added to each well and incubated at room temperature for 30 min, after which dye was removed and wells were rinsed again with 155 µL of PBS. After sufficient drying of wells, 150 µL of 70% ethanol solution was added to each well and incubated at room temperature for 30 min. After 30 min, 100 µL of each well was added to a new 96-well plate and absorbance was measured at an OD of 590 nm.

## CC[C@H](C)[C@H](NC(=O)[C@H](CCCCN)NC(=O)[C@H](CCCNC(=N)N)NC(=O)[C@H](CC(C)C)NC(=O)[C@H](CC(C)C)NC(=O)[C@H](CCCNC(=N)N)NC(=O)[C@H](CCCNC(=N)N)NC(=O)[C@H](CC(C)C)NC(=O)CN)C(=O)N[C@@H](CCCNC(=N)N)C(=O)NCC(=O)N[C@@H](CCCNC(=N)N)C(=O)N[C@@H](Cc1c[nH]c2ccccc12)C(=O)N[C@@H](CCCCN)C(=O)NCC(=O)NCC(=O)NCC(=O)N[C@@H](CCCNC(=N)N)C(=O)NCC(=O)NCC(=O)N[C@@H](CCCNC(=N)N)C(=O)N[C@@H](CC(C)C)C(=O)N[C@H]1CSSC[C@@H](C(=O)N[C@H](C(=O)NCC(=O)N[C@@H](CCCNC(=N)N)C(=O)O)C(C)C)NC(=O)[C@H](C(C)C)NC(=O)[C@@H]2CSSC[C@H](NC(=O)[C@H](Cc3ccc(O)cc3)NC1=O)C(=O)N[C@@H](CCCNC(=N)N)C(=O)N[C@@H](CCCNC(=N)N)C(=O)N[C@@H](CCCNC(=N)N)C(=O)N[C@@H](Cc1ccccc1)C(=O)N2 [SynPG-1, Syn-Protegrin-1] (H-GLRRLLRKIRGRWKGGGRGGRLCYCRRRFCVCVGR-OH; disulfide 23-32, 25-30; N-terminus and C-terminus assumed)
MRSA biofilm
  Concentration at which inhibition of biofilm formation was seen: 2 µg/mL
[1]
  Concentration with significant disruption of pre-formed biofilm: 8 µg/mL
